# In patent US6605628B1, “Method of using 5-(arysulfonyl)-, 5-(arylsulfanyl)-and 5-(arylsulfanyl)thiazolidine-2,4-diones for inhibition of farnesyl-protein transferase” (Wyeth Holdings Corporation, priority 2001, dated 2003):
# Read-outs that look alike come from different tables or passages of the source.
# Target: FPTase (Homo sapiens, UniProt P49354+P49356)
# Experiment: in vitro FTase Inhibition Assay, H-Ras used as substrate for farnesylation
# Assay type: biochemical
# Description: Enzyme test procedure: FPTase inhibition in vitro assay was performed according to James, G. L., Brown, M. S., and Goldstein, J. L., Methods in Enzymology, 1995, 255, 38-46; and Garcia, M. A., et al., J. Biol. Chem., 1993, 268, 18415-18420.
# Materials—Purified FPTase (Moomaw, J. F. and Casey, P. J., J. Biol. Chem., 1992, 267, 17438-17443), purified His6-Ras, inhibitor compounds at 10 mg/ml or 10 mM in 100% DMSO, ^3H-FPP (50,000 dpm/pmol) Amersham, TCA/SDS (6%/2%), TCA (6%), Glass fiber filters ([…]), vacuum manifold or 96 well filtration plates.
# Methods—1. Dilute FPTase inhibitors from stock solutions to 2.5× in 2.5% DMSO, 10 mM DTT, 0.5% octyl-B-glucoside. 2. Solution #1 is added to FPTase reaction in a volume of […]. 3. Standard reaction mix, […], contains 50 mM Tris (7.5), 10 mM ZnCl2, 3 mM MgCl2, 20 mM KCl, 5 mM DTT, 0.2% octyl-B-glucoside, 1% DMSO, […] His6-Ras, 10 ng FPTase, and various concentrations of FPTase inhibitors. 4. Incubate for 30-90 min at 25° C. 5. Stop reactions with TCA/SDS (6%/2%), hold at 4° C. for 45-60 min. 6. Filter by manifold or 96 well plate, wash filter 3-5× with TCA (6%). 7. Add scintillant to filters, measure ^3H-FPP incorporation into Ras protein.
# Analysis of Results—Percent inhibition by test compounds is determined by the following:
# (cpm from precipitated Ras with test compounds)−(background cpm)×100=% inhibition.
# (cpm from precipitated Ras without test compounds)−(background cpm)
# [1] = Table II, read-out: IC50 (wi. H-Ras)
SMILES,"IC50 (Table I, read-out: IC50 H-Ras*)",IC50 [1]
"O=C1NC(=O)C(CCCC#Cc2ccc(Cl)cc2)(Sc2ccc(F)cc2)S1 (centres unmarked) [Example 96, 5-[5-(4-Chlorophenyl)pent-4-ynyl]-5-(4-fluorophenylsulfanyl)-thiazolidine-2,4-dione]",700 nM,
"COc1ccc(S(=O)(=O)C2(CC#Cc3cccnc3)SC(=O)NC2=O)cc1 (centres unmarked) [Example 167, 5-(4-Methoxybenzenesulfonyl)-5-(3-pyridin-3-ylprop-2-ynyl)-thiazolidine-2,4-dione]",1500 nM,
"Cc1ccc(S(=O)(=O)C2(CC#Cc3cccs3)SC(=O)NC2=O)cc1 (centres unmarked) [Example 168, 5-(3-Thiophen-2-yl-prop-2-ynyl)-5-(toluene-4-sulfonyl)-thiazolidine-2,4-dione]",280 nM,
"COc1ccc(S(=O)(=O)C2(CCCC#Cc3ccc(Cl)cc3)SC(=O)N(CCCn3ccnc3)C2=O)cc1 (centres unmarked) [Example 233, 5-[5-(4-Chlorophenyl)pent-4-ynyl]-3-(3-imidazol-1-yl-propyl)-5-(4-methoxybenzenesulfonyl)-thiazolidine-2,4-dione]",2900 nM,
"O=C1NC(=O)C(CC#Cc2ccc(Cl)cc2)(S(=O)(=O)c2ccc3ccccc3c2)S1 (centres unmarked) [Example 239, 5-[3-(4-Chloro-phenyl)-prop-2-ynyl]-5-(napthalene-2-sulfonyl)-thiazolidine-2,4-dione]",,700 nM
"O=C1NC(=O)C(CC#Cc2ccc(Cl)cc2)(S(=O)(=O)c2ccccc2)S1 (centres unmarked) [Example 240, 5-Benzenesulfonyl-5-[3-(4-chloro-phenyl)-prop-2-ynyl]-thiazolidine-2,4-dione]",,500 nM
"O=C1NC(=O)C(CC#Cc2ccccc2)(S(=O)(=O)c2ccccc2)S1 (centres unmarked) [Example 241, 5-Benzenesulfonyl-5-[3-phenyl-prop-2-ynyl]-thiazolidine-2,4-dione]",,1500 nM
"O=C1NC(=O)C(CC#Cc2ccccc2)(S(=O)(=O)c2ccc(Cl)cc2)S1 (centres unmarked) [Example 242, 5-(4-Chloro-benzenesulfonyl)-5-(3-phenyl-prop-2-ynyl)-thiazolidine-2,4-dione]",,1000 nM
"O=C1NC(=O)C(CC#Cc2ccc(Cl)cc2)(S(=O)(=O)c2ccc(F)cc2)S1 (centres unmarked) [Example 243, 5-[3-(4-Chloro-phenyl)-prop-2-ynyl]-5-(4-fluoro-benzenesulfonyl)-thiazolidine-2,4-dione]",,300 nM
"Cc1ccc(S(=O)(=O)C2(CC#Cc3ccc(F)cc3)SC(=O)NC2=O)cc1 (centres unmarked) [Example 246, 5-[3-(4-Fluoro-phenyl)-prop-2-ynyl]-5-(toluene-4-sulfonyl)-thiazolidine-2,4-dione]",,300 nM
"Cc1ccc(C#CCC2(S(=O)(=O)c3ccc(C)cc3)SC(=O)NC2=O)cc1 (centres unmarked) [Example 247, 5-(Toluene-4-sulfonyl)-5-[3-(p-tolyl)-prop-2-ynyl]-thiazolidine-2,4-dione]",,300 nM
"O=C1NC(=O)C(CC#Cc2ccccc2)(S(=O)(=O)c2ccc(Br)cc2)S1 (centres unmarked) [Example 248, 5-(4-Bromo-benzenesulfonyl)-5-(3-phenyl-prop-2-ynyl)-thiazolidine-2,4-dione]",,450 nM
"COc1ccc(S(=O)(=O)C2(CC#Cc3ccc(Cl)cc3)SC(=O)NC2=O)cc1 (centres unmarked) [Example 249, 5-[3-(4-Chloro-phenyl)-prop-2-ynyl]-5-(4-methoxy-benzenesulfonyl)-thiazolidine-2,4-dione]",,400 nM
"O=C1NC(=O)C(CC#Cc2ccccc2)(S(=O)(=O)c2ccc3ccccc3c2)S1 (centres unmarked) [Example 250, 5-(Naphthalene-2-sulfonyl)-5-(3-phenyl-prop-2-ynyl)-thiazolidine-2,4-dione]",,1500 nM
"O=C1NC(=O)C(CC#Cc2ccc(C(F)(F)F)cc2)(S(=O)(=O)c2ccccc2)S1 (centres unmarked) [Example 254, 5-Benzenesulfonyl-5-[3-(4-trifluoromethyl-phenyl)-prop-2-ynyl]-thiazolidine-2,4-dione]",,500 nM
"Cc1cccc(S(=O)(=O)C2(CC#Cc3ccc(Cl)cc3)SC(=O)NC2=O)c1 (centres unmarked) [Example 256, 5-[3-(4-Chloro-phenyl)-prop-2-ynyl]-5-(toluene-3-sulfonyl)-thiazolidine-2,4-dione]",,800 nM
"O=C1NC(=O)C(CC#Cc2ccccc2Cl)(S(=O)(=O)c2ccccc2)S1 (centres unmarked) [Example 258, 5-Benzenesulfonyl-5-[3-(2-chloro-phenyl)-prop-2-ynyl]-thiazolidine-2,4-dione]",,2000 nM
"O=C1NC(=O)C(CC#Cc2cccc(Cl)c2)(S(=O)(=O)c2ccccc2)S1 (centres unmarked) [Example 261, 5-Benzenesulfonyl-5-[3-(3-chloro-phenyl)-prop-2-ynyl]-thiazolidine-2,4-dione]",,300 nM

# More lines, in order of falling IC50 [1], values ahead:
"IC50 (Table I, read-out: IC50 H-Ras*)",IC50 [1],SMILES
,150 nM,"Cc1ccc(S(=O)(=O)C2(CC#Cc3ccc(C(F)(F)F)cc3)SC(=O)NC2=O)cc1 (centres unmarked) [Example 251, 5-(Toluene-4-sulfonyl)-5-[3-(4-trifluoromethyl-phenyl)-prop-2-ynyl]-thiazolidine-2,4-dione]"
,150 nM,"O=C1NC(=O)C(CC#Cc2ccc(F)cc2)(S(=O)(=O)c2ccc(Cl)cc2)S1 (centres unmarked) [Example 255, 5-(4-Chloro-benzenesulfonyl)-5-[3-(4-fluoro-phenyl)-prop-2-ynyl]-thiazolidine-2,4-dione]"
,150 nM,"O=C1NC(=O)C(CC#Cc2cc(C(F)(F)F)cc(C(F)(F)F)c2)(S(=O)(=O)c2ccccc2)S1 (centres unmarked) [Example 259, 5-Benzenesulfonyl-5-[3-(3,5-bis-trifluoromethyl-phenyl)-prop-2-ynyl]-thiazolidine-2,4-dione]"
,150 nM,"O=C1NC(=O)C(CC#Cc2ccc(Br)cc2)(S(=O)(=O)c2ccc(Cl)cc2)S1 (centres unmarked) [Example 263, 5-[3-(4-Bromo-phenyl)-prop-2-ynyl]-5-(4-chloro-benzenesulfonyl)-thiazolidine-2,4-dione]"
,100 nM,"O=C1NC(=O)C(CC#Cc2ccc(Cl)cc2)(S(=O)(=O)c2ccc(Cl)cc2)S1 (centres unmarked) [Example 244, 5-(4-Chloro-benzenesulfonyl)-5-[3-(4-chloro-phenyl)-prop-2-ynyl]-thiazolidine-2,4-dione]"
,100 nM,"Cc1ccc(S(=O)(=O)C2(CC#Cc3cc(C(F)(F)F)cc(C(F)(F)F)c3)SC(=O)NC2=O)cc1 (centres unmarked) [Example 260, 5-[3-(3,5-bis-Trifluoromethyl-phenyl)-prop-2-ynyl]-5-(toluene-4-sulfonyl)-thiazolidine-2,4-dione]"
,90 nM,"Cc1ccc(S(=O)(=O)C2(CC#Cc3ccc(Br)cc3)SC(=O)NC2=O)cc1 (centres unmarked) [Example 253, 5-[3-(4-Bromo-phenyl)-prop-2-ynyl]-5-(toluene-4-sulfonyl)-thiazolidine-2,4-dione]"
,80 nM,"COc1ccc(C#CCC2(S(=O)(=O)c3ccc(C)cc3)SC(=O)NC2=O)cc1 (centres unmarked) [Example 252, 5-[3-(4-Methoxy-phenyl)-prop-2-ynyl]-5-(toluene-4-sulfonyl)-thiazolidine-2,4-dione]"
,70 nM,Cc1ccc(S(=O)(=O)C2(CC#Cc3ccc(Cl)cc3)SC(=O)NC2=O)cc1 (centres unmarked) [Example 262]
,50 nM,"O=C1NC(=O)C(CC#Cc2ccc(Cl)cc2)(S(=O)(=O)c2ccc(Br)cc2)S1 (centres unmarked) [Example 245, 5-(4-Bromo-benzenesulfonyl)-5-[3-(4-chloro-phenyl)-prop-2-ynyl]-thiazolidine-2,4-dione]"
,35 nM,"Cc1ccc(S(=O)(=O)C2(CC#Cc3cccc(Cl)c3)SC(=O)NC2=O)cc1 (centres unmarked) [Example 257, 5-[3-(3-Chloro-phenyl)-prop-2-ynyl]-5-(toluene-4-sulfonyl)-thiazolidine-2,4-dione]"
